# Calls of active or inactive are those of the source. The calls are words filed in the database; no cut-off is given here.
# Tests used:
# [1] = target: Protein kinase C iota type (Homo sapiens) (UniProt P41743); experiment: activity of PKCiota(h) at 1.0 µM in the Eurofins Kinase panel; conditions: Compound concentration 1.0 uM
# [2] = target: Tyrosine-protein kinase ABL1 (Homo sapiens) (UniProt P00519); experiment: activity of Abl(h) at 1.0 µM in the Eurofins Kinase panel; conditions: Compound concentration 1.0 uM
# [3] = target: Tyrosine-protein kinase ZAP-70 (Homo sapiens) (UniProt P43403); experiment: activity of ZAP-70(h) at 1.0 µM in the Eurofins Kinase panel; conditions: Compound concentration 1.0 uM
# [4] = target: Phosphatidylinositol 3-kinase C2 domain-containing subunit gamma (Homo sapiens) (UniProt O75747); experiment: activity of PI3KC2gamma(h) at 1.0 µM in the Eurofins Kinase panel; conditions: Compound concentration 1.0 uM
# [5] = target: Mitogen-activated protein kinase kinase kinase kinase 1 (Homo sapiens) (UniProt Q92918); experiment: activity of HPK1(h) at 1.0 µM in the Eurofins Kinase panel; conditions: Compound concentration 1.0 uM
# [6] = target: Casein kinase I isoform gamma-1 (Homo sapiens) (UniProt Q9HCP0); experiment: activity of CK1gamma1(h) at 1.0 µM in the Eurofins Kinase panel; conditions: Compound concentration 1.0 uM
# [7] = target: Vascular endothelial growth factor receptor 1 (Homo sapiens) (UniProt P17948); experiment: activity of Flt1(h) at 1.0 µM in the Eurofins Kinase panel; conditions: Compound concentration 1.0 uM
# [8] = target: Tyrosine-protein kinase Lck (Homo sapiens) (UniProt P06239); experiment: activity of Lck(h) activated at 1.0 µM in the Eurofins Kinase panel; conditions: Compound concentration 1.0 uM
# [9] = target: Myosin light chain kinase (Homo sapiens) (UniProt Q32MK0); experiment: activity of MLCK(h) at 1.0 µM in the Eurofins Kinase panel; conditions: Compound concentration 1.0 uM
# [10] = target: Platelet-derived growth factor receptor beta (Homo sapiens) (UniProt P09619); experiment: activity of PDGFRbeta(h) at 1.0 µM in the Eurofins Kinase panel; conditions: Compound concentration 1.0 uM
# [11] = target: Serine/threonine-protein kinase WNK4 (Homo sapiens) (UniProt Q96J92); experiment: activity of WNK4(h) at 1.0 µM in the Eurofins Kinase panel; conditions: Compound concentration 1.0 uM
# [12] = target: Ephrin type-B receptor 1 (Homo sapiens) (UniProt P54762); experiment: activity of EphB1(h) at 1.0 µM in the Eurofins Kinase panel; conditions: Compound concentration 1.0 uM
# [13] = target: Tyrosine-protein kinase FRK (Homo sapiens) (UniProt P42685); experiment: activity of PTK5(h) at 1.0 µM in the Eurofins Kinase panel; conditions: Compound concentration 1.0 uM
# [14] = target: MAP/microtubule affinity-regulating kinase 3 (Homo sapiens) (UniProt P27448); experiment: activity of MARK3(h) at 1.0 µM in the Eurofins Kinase panel; conditions: Compound concentration 1.0 uM
# [15] = target: Leukocyte tyrosine kinase receptor (Homo sapiens) (UniProt P29376); experiment: activity of LTK(h) at 1.0 µM in the Eurofins Kinase panel; conditions: Compound concentration 1.0 uM
# [16] = target: Homeodomain-interacting protein kinase 1 (Homo sapiens) (UniProt Q86Z02); experiment: activity of HIPK1(h) at 1.0 µM in the Eurofins Kinase panel; conditions: Compound concentration 1.0 uM
# ATR/ATRIP (Homo sapiens) = ATR/ATRIP (Homo sapiens) (UniProt Q13535+Q8WXE1); experiment: activity of ATR/ATRIP(h) at 1.0 µM in the Eurofins Kinase panel; type: protein-complex assay; conditions: Compound concentration 1.0 uM
# [17] = target: mTOR/FKBP12A/FKBP12B (Homo sapiens) (UniProt P62942+P68106+P42345); experiment: activity of mTOR/FKBP12(h) at 1.0 µM in the Eurofins Kinase panel; type: protein-complex assay; conditions: Compound concentration 1.0 uM
# [18] = target: Proto-oncogene tyrosine-protein kinase ROS (Homo sapiens) (UniProt P08922); experiment: activity of Ros(h) at 1.0 µM in the Eurofins Kinase panel; conditions: Compound concentration 1.0 uM
# [19] = target: Dual specificity protein kinase CLK4 (Homo sapiens) (UniProt Q9HAZ1); experiment: activity of CLK4(h) at 1.0 µM in the Eurofins Kinase panel; conditions: Compound concentration 1.0 uM
# [20] = target: Citron Rho-interacting kinase (Homo sapiens, UniProt O14578); experiment: Promega NanoBRET (CIT)
# [21] = target: Serine/threonine-protein kinase ULK3 (Homo sapiens) (UniProt Q6PHR2); experiment: activity of ULK3(h) at 1.0 µM in the Eurofins Kinase panel; conditions: Compound concentration 1.0 uM
# [22] = target: Receptor-type tyrosine-protein kinase FLT3 (Homo sapiens) (UniProt P36888); experiment: activity of Flt3(h) at 1.0 µM in the Eurofins Kinase panel; conditions: Compound concentration 1.0 uM
# [23] = target: Serine/threonine-protein kinase ICK (Homo sapiens) (UniProt Q9UPZ9); experiment: activity of ICK(h) at 1.0 µM in the Eurofins Kinase panel; conditions: Compound concentration 1.0 uM
# [24] = target: Dual specificity protein kinase TTK (Homo sapiens) (UniProt P33981); experiment: activity of TTK(h) at 1.0 µM in the Eurofins Kinase panel; conditions: Compound concentration 1.0 uM
# [25] = target: Ephrin type-B receptor 3 (Homo sapiens) (UniProt P54753); experiment: activity of EphB3(h) at 1.0 µM in the Eurofins Kinase panel; conditions: Compound concentration 1.0 uM
# [26] = target: Mitogen-activated protein kinase kinase kinase 7 (Homo sapiens) (UniProt O43318); experiment: activity of TAK1(h) at 1.0 µM in the Eurofins Kinase panel; conditions: Compound concentration 1.0 uM
# [27] = target: Mitogen-activated protein kinase kinase kinase kinase 4 (Homo sapiens) (UniProt O95819); experiment: activity of MAP4K4(h) at 1.0 µM in the Eurofins Kinase panel; conditions: Compound concentration 1.0 uM
# [28] = target: RAF proto-oncogene serine/threonine-protein kinase (Homo sapiens) (UniProt P04049); experiment: activity of c-RAF(h) at 1.0 µM in the Eurofins Kinase panel; conditions: Compound concentration 1.0 uM
# [29] = target: CDK6/cyclin D3 (Homo sapiens) (UniProt P30281+Q00534); experiment: activity of CDK6/cyclinD3(h) at 1.0 µM in the Eurofins Kinase panel; type: protein-complex assay; conditions: Compound concentration 1.0 uM
# [30] = target: Serine/threonine-protein kinase 33 (Homo sapiens) (UniProt Q9BYT3); experiment: activity of STK33(h) at 1.0 µM in the Eurofins Kinase panel; conditions: Compound concentration 1.0 uM
# [31] = target: 5'-AMP-activated protein kinase catalytic subunit alpha-2 (Homo sapiens) (UniProt P54646); experiment: activity of AMPKalpha2(h) at 1.0 µM in the Eurofins Kinase panel; conditions: Compound concentration 1.0 uM
# [32] = target: Casein kinase I isoform gamma-3 (Homo sapiens) (UniProt Q9Y6M4); experiment: activity of CK1gamma3(h) at 1.0 µM in the Eurofins Kinase panel; conditions: Compound concentration 1.0 uM
# [33] = target: Serine/threonine-protein kinase Nek11 (Homo sapiens) (UniProt Q8NG66); experiment: activity of NEK11(h) at 1.0 µM in the Eurofins Kinase panel; conditions: Compound concentration 1.0 uM
# [34] = target: Tyrosine-protein kinase HCK (Homo sapiens) (UniProt P08631); experiment: activity of Hck(h) activated at 1.0 µM in the Eurofins Kinase panel; conditions: Compound concentration 1.0 uM
# [35] = target: CDK3/Cyclin E (Homo sapiens) (UniProt P24864+Q00526); experiment: activity of CDK3/cyclinE(h) at 1.0 µM in the Eurofins Kinase panel; type: protein-complex assay; conditions: Compound concentration 1.0 uM
# [36] = target: Serine/threonine-protein kinase/endoribonuclease IRE1 (Homo sapiens) (UniProt O75460); experiment: activity of IRE1(h) at 1.0 µM in the Eurofins Kinase panel; conditions: Compound concentration 1.0 uM
# [37] = target: Cyclin-G-associated kinase (Homo sapiens, UniProt O14976); experiment: Promega NanoBRET (GAK)
# [38] = target: Protein kinase C delta type (Homo sapiens) (UniProt Q05655); experiment: activity of PKCdelta(h) at 1.0 µM in the Eurofins Kinase panel; conditions: Compound concentration 1.0 uM
# Sequence of Mitogen-activated protein kinase kinase kinase kinase 1 (Homo sapiens) (Q92918 whole entry, looked up, canonical isoform): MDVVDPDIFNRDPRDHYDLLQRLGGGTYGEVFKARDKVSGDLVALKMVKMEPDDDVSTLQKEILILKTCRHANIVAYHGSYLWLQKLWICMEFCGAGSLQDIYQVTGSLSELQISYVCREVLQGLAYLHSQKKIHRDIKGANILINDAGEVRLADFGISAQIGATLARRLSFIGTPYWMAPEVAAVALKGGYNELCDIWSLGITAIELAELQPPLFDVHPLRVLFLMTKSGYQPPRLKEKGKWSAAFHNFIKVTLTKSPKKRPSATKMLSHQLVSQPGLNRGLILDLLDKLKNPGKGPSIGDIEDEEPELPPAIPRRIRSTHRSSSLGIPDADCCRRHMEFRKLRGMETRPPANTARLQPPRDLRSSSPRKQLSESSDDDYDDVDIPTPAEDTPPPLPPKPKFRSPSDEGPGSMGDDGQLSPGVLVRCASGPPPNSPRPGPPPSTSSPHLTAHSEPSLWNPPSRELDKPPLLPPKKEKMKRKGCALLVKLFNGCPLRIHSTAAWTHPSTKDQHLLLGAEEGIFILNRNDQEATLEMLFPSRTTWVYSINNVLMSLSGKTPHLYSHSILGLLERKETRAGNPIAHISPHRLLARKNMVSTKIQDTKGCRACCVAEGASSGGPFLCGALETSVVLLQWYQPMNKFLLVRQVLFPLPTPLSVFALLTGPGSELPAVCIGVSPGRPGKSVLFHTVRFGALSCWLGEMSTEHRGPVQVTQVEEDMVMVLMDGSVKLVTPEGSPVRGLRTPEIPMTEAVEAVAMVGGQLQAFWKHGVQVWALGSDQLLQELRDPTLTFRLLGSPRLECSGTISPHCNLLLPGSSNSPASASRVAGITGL
# Sequence of Myosin light chain kinase (Homo sapiens) (Q32MK0 whole entry): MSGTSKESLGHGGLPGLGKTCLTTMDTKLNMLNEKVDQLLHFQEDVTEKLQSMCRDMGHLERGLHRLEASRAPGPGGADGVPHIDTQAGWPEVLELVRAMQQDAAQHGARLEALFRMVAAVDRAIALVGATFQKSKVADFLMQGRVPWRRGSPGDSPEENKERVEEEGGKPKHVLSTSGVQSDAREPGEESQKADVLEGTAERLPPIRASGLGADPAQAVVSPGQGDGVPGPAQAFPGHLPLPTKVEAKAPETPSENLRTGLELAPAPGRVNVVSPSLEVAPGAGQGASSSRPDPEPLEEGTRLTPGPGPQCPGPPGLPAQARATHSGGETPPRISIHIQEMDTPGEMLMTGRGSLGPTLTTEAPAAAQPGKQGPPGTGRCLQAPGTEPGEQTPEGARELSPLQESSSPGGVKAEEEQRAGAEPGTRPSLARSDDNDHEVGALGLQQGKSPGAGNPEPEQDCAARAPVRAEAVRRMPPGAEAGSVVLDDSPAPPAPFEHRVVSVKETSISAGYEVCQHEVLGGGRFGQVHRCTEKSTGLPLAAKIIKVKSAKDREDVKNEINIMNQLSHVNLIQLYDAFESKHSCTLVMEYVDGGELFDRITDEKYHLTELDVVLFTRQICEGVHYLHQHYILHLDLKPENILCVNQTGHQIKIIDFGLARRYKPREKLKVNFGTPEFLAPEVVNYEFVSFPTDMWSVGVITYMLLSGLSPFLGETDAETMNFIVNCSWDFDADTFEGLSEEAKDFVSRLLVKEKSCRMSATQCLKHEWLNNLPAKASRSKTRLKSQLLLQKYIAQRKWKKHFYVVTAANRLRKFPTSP
# Sequence of Citron Rho-interacting kinase (O14578 whole entry): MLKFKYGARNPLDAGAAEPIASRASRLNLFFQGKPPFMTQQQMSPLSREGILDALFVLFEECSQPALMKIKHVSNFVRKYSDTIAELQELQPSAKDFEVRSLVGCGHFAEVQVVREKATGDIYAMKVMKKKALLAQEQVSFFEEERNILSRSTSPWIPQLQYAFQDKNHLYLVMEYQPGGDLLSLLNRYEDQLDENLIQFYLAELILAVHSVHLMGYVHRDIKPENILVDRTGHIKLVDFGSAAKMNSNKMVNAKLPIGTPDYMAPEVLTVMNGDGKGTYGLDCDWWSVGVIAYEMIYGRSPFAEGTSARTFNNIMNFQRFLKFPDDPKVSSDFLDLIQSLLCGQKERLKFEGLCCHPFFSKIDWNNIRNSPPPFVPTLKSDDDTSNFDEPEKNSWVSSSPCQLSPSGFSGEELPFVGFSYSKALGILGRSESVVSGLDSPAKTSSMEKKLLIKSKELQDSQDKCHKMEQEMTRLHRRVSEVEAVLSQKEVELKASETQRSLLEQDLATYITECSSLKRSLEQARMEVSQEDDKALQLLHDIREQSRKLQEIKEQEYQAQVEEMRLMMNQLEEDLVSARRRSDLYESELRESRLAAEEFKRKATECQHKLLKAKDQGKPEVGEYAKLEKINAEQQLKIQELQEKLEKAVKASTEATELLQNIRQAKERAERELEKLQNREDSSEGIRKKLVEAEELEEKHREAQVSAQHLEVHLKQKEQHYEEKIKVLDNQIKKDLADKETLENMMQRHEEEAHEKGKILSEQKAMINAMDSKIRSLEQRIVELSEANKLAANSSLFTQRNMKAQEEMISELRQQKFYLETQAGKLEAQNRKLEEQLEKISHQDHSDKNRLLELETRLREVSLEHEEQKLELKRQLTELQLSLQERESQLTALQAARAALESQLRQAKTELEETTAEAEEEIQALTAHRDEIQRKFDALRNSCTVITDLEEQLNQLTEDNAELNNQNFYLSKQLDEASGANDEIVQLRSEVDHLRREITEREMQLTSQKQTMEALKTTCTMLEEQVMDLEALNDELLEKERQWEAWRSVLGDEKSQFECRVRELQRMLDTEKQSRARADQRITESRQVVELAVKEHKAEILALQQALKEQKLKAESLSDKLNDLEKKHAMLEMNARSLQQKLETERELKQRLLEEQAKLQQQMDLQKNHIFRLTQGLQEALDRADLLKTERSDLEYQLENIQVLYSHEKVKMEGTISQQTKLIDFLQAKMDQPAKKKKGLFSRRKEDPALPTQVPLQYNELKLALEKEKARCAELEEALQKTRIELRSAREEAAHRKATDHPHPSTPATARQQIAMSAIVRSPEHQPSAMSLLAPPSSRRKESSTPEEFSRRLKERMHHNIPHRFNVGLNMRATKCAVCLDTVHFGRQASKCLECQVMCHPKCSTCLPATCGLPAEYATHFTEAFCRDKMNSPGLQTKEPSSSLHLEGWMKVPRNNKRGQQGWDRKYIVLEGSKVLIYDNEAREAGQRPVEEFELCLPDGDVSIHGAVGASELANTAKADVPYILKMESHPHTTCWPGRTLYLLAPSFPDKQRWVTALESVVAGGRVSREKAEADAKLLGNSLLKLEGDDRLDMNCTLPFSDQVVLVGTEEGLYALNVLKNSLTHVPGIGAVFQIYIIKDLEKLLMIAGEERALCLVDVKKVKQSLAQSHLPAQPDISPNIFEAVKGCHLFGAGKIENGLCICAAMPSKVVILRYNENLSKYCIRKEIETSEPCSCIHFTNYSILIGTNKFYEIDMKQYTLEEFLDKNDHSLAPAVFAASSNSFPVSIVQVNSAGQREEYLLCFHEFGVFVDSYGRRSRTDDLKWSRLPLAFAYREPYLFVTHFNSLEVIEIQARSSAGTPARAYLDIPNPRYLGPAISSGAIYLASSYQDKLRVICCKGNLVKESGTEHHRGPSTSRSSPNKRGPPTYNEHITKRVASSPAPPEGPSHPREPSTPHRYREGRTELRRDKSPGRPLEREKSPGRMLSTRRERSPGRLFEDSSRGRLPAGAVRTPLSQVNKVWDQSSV
# Sequence of Protein kinase C iota type (Homo sapiens) (P41743 whole entry): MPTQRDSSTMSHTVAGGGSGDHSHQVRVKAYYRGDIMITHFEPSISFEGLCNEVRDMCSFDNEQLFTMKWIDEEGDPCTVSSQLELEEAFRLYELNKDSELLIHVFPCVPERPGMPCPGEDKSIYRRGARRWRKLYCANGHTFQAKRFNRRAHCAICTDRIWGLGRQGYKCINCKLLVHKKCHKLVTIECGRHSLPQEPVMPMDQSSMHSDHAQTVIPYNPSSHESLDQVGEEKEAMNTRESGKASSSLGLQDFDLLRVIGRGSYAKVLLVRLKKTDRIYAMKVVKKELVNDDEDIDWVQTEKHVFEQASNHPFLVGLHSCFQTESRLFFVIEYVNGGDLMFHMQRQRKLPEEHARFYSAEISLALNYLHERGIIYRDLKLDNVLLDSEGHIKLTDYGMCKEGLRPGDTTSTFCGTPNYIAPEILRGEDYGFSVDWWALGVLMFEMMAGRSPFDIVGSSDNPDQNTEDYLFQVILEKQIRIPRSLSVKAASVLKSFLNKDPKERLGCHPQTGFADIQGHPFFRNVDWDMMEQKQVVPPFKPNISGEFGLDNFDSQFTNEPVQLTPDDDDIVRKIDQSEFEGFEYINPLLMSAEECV
# Sequence of Mitogen-activated protein kinase kinase kinase 7 (Homo sapiens) (O43318 whole entry): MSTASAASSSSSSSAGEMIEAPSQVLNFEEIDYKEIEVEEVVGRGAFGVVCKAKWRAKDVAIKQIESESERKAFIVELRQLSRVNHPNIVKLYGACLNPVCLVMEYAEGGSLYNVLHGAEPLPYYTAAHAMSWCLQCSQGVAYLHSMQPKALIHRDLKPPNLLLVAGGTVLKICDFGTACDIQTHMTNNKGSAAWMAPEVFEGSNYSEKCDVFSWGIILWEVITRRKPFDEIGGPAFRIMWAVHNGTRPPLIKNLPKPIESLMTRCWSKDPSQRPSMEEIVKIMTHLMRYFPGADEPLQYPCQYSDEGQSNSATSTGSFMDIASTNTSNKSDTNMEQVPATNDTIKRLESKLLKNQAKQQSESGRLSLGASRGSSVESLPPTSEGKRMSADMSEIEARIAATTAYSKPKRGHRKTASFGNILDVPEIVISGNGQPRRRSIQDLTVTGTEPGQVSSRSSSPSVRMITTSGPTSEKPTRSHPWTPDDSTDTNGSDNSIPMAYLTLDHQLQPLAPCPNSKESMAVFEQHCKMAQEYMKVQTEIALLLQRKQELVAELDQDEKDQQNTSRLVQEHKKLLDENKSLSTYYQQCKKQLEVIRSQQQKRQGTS
structure (smiles),measurement,setting,value
Cc1cc2c(-c3ccc(NC(=O)[C@H](N)CC(C)(C)C)cc3C)ccnc2[nH]1,activity,[1],110%
same,activity,[2],99%
same,activity,[3],71%
same,activity,[4],103%
same,activity,[5],73%
same,activity,[6],101%
same,activity,[7],125%
same,activity,[8],119%
same,activity,[9],98%
same,activity,[10],105%
same,activity,[11],97%
same,activity,[12],83%
same,activity,[13],90%
same,activity,[14],90%
same,activity,[15],97%
same,activity,[16],100%
same,activity,ATR/ATRIP (Homo sapiens),110%
same,activity,[17],120%
same,activity,[18],97%
same,activity,[19],85%
same,IC50,[20],0.051 µM (active)
same,activity,[21],95%
same,activity,[22],84%
same,activity,[23],99%
same,activity,[24],102%
same,activity,[25],79%
same,activity,[26],91%
same,activity,[27],101%
same,activity,[28],106%
same,activity,[29],90%
same,activity,[30],98%
same,activity,[31],117%
same,activity,[32],84%
same,activity,[33],97%
same,activity,[34],111%
same,activity,[35],102%
same,activity,[36],99%
same,IC50,[37],> 10 µM (not active)
same,activity,[38],93%

# Source: ChEMBL document CHEMBL5723584 (2023)
